Assay results as given in patent US4478845A, “Antiinflammatory and/or analgesic imidazoimidazoles” (E. I. Du Pont de Nemours and Company, priority 1983, dated 1984).
Where two headings read alike, the source gives them in different places.

How the values were obtained:
[1] = tested on: phenylquinone-induced writhing in mice; experiment: Phenylquinone Writhing Test; type: in vivo, female white mice; conditions: Mus musculus, read-out: Phenylquinone Writhing (PQW) ED50
Method: A test compound suspended in 1% methylcellulose was given orally to fasted (17-21 hours) female white mice, 5-20 animals per double blind test. Aqueous (0.01% phenyl-p-benzoquinone) phenylquinone, 0.20 ml per mouse, was injected intraperitoneally 6 minutes before observations were begun.

[2] = tested on: adjuvant-induced arthritis in rats (paw volume); experiment: Established Adjuvant-Induced Arthritis in Rats; type: in vivo, Charles River Lewis male rats; conditions: for ED50: Rattus norvegicus, read-out: Adjuvant Arthritic ED50; for percent reduction in paw volume at the indicated dose: at 45 (mg/kg)
[3] = oral, fasted female mice, effective analgesic dose for 50% of the mice
[4] = oral, rats, 7 daily doses, ED50% decrease from control paw volume (uninjected, left hind paw)

| SMILES | ED50 [1, 3] [mg/kg] | ED50 [2, 4] [mg/kg] | ED50 ([2]; po) [mg/kg] | ED50 ([1]; po) [mg/kg] | percent reduction in paw volume at the indicated dose ([2]; oral, rats, 7 daily doses) [%] |
| --- | --- | --- | --- | --- | --- |
| CC(C)Cc1ccc(C(C)C(=O)O)cc1 (stereo not shown) [Ibuprofen] | 10 | 100 | – | – | – |
| CCCCC1C(=O)N(c2ccccc2)N(c2ccccc2)C1=O [Phenylbutazone] | 80 | 10 | – | – | – |
| CC(=O)Oc1ccccc1C(=O)O [Aspirin] | – | – | 305 | – | – |
| COc1ccc2c(c1)c(CC(=O)O)c(C)n2C(=O)c1ccc(Cl)cc1 [Indomethacin] | – | – | 0.3 | 0.35 | – |
| COc1ccc(-c2nc3n(c2-c2ccc(OC)cc2)C(C)=NC3(C(F)(F)F)C(F)(F)F)cc1 [Example 2, 2,3-bis(4-Methoxyphenyl)-5-methyl-7,7-bis(trifluoromethyl)imidazo[1,5-a]imidazole] | 21 | – | – | – | 31 |
| CC1=NC(C(F)(F)F)(C(F)(F)F)c2nc(-c3ccc(C)cc3)c(-c3ccc(C)cc3)n21 [Example 3, 2,3-bis(4-Methylphenyl)-5-methyl-7,7-bis(trifluoromethyl)imidazo[1,5-a]imidazole] | > 108 | – | – | – | 44 |
| CC1=NC(C(F)(F)F)(C(F)(F)F)c2nc(-c3ccc(F)cc3)c(-c3ccc(F)cc3)n21 [Example 1, 2,3-bis(4-Fluorophenyl)-5-methyl-7,7-bis(trifluoromethyl)imidazo[1,5-a]imidazole] | – | 6.5 | – | 135 | – |
